Legend:
c-FLIP [1] = assay: Protein levels of c-FLIP and pro-caspases in fluoxetine-treated NSCs (Western, immunostaining); format: cell-based, rat
Procedure: (§1) All animal used were treated in accordance with the Animal Care and Use Committee guideline at Taipei Veterans General Hospital. Adult Sprague-Dawley rats (8 weeks old, 250 g) were anesthetized with intraperitoneal phenobarbital (Sigma, USA). The location of their brains was mapped: then, the brain was surgically separated from the hippocampus region with the procedure. Tissues from the hippocampus of the adult SD rats were dissociated and incubated in Hank's balanced salt solution (HBSS) containing collagenase (78 units/ml) and hyaluronidase (38 units/ml) for 10 mins at 37° C. The tissues were then mechanically dissected and placed in a trypsin solution (1.33 mg/ml) at 37° C. for another 10 mins. Dissociated cells were then centrifuged at 150 g for 5 mins. The enzyme solution was then removed and replaced with serum-free culture media composed of Dulbecco modified Eagle medium (DMEM) and F-12 nutrient (1:1) including insulin (25 μg/mL), transferrin (100 μg/mL), progesterone (20 nM), putrescine (60 μM), sodium selenite (30 nM), and human recoFLinant epidermal growth factor (EGF) 20 ng/mL and fibroblast growth factor-basic (bFGF) 20 ng/mL (R&D Systems, Minneapolis, Minn.). Viable cells were counted by trypan blue exclusion and plated as 5000 cells/200 μL per well in 96-well plates (Corning, Acton, Mass.) with no substrate pretreatment.
The pGL3-FLIP was obtained from based on T. Bartke et al., Oncogene 20 (2001) 571-580. The c-FLIP promoter deletion constructs pGL3-FLIP978, pGL3-FLIP696, pGL3-FLIP414 and pGL3-FLIP132 were generated by PCR amplification of corresponding DNA sequences from pGL3-FLIP using the following forward primers 5′-[…] […]
An avidin-biotin complex method was used for the immunohistochemical staining in the differentiated NSCs. […] Immunoreactive signals were detected with a mixture of biotinylated rabbit antimouse IgG and Fluoesave (Calbiochem, La Jolla, Calif., USA) under immunofluorescent microscope (Olympus FV300).

c-FLIP promoter = c-FLIP promoter luciferase assay in fluoxetine-treated NSCs; format: cell-based, rat; settings: fluoxetine 20 μm
Procedure: as §1, with “pretreatment. […]” for “pretreatment.”

c-FLIP [2] = assay: c-FLIP mRNA expression in fluoxetine-treated NSCs (real-time RT-PCR); format: cell-based, rat; settings: FL-treated NSCs
Procedure: as §1, with “The enzyme solution was then removed and replaced with serum-free culture media composed of Dulbecco modified Eagle medium (DMEM) and F-12 nutrient (1:1) including insulin (25 μg/mL), transferrin (100 μg/mL), progesterone (20 nM), putrescine (60 μM), sodium selenite (30 nM), and human recoFLinant epidermal growth factor (EGF) 20 ng/mL and fibroblast growth factor-basic (bFGF) 20 ng/mL (R&D Systems, Minneapolis, Minn.).” left out
For real-time RT-PCR, the total RNA was extracted using the RNAeasy kit (Qiagen, Valencia, Calif., USA) as previously described C. […] The quantification in the unknown samples was performed by the LightCycler Relative Quantification Software version 3.3 (Roche Molecular Systems, Alameda, Calif., USA). […]

[3] = Bile duct microdialysis with HPLC-UV of unbound cefoperazone in rat bile; format: in vivo; settings: male, Sprague-Dawley, bile microdialysate (bile duct), 360 min following cefoperazone intravenous administration (30 mg/kg), read-out: cefoperazone concentration in microdialysate from rat biliary duct
Procedure: Adult, male Sprague-Dawley rats (280-350 g) were obtained from the Laboratory Animal Center at National Yang-Ming University (Taipei, Taiwan). These animals were specifically pathogen-free and were allowed to acclimate to their environmentally controlled quarters (24±1° C. and 12:12 h light-dark cycle) for at least 5 days before the experiments began. At the start of experiments, the rats were anesthetized with urethane 0.8 g/ml and chloralose 0.08 g/ml ([…], i.p.). Throughout the experimental period, anesthesia was maintained by administering one quarter of the initial dose at each hour. The experimental animals were kept warm with a heating pad throughout the experiments.
The HPLC system consisted of a chromatographic pump (BAS PM-80, Bioanalytical System, West Lafayette, Ind., USA), an on-line injector (CMA/160, Stockholm, Sweden) equipped with a 20 μl sample loop and a UV detector (Soma S-3702, Tokyo, Japan). […] Output signal from the HPLC-UV was recorded using an EZChrom chromatographic data system (Scientific Software, San Ramon, Calif., USA). […]
For in vivo recovery, normal saline solution containing cefoperazone (50 or 100 μg/ml) were pumped through the probes at a constant flow rate (2 μl/min) using the infusion pump (CMA/100). After a stabilization period of 2 h, the inlet (C^in) and outlet (C^out) concentrations of cefoperazone were determined by HPLC. […]

[4] = different concentrations of fluoxetine treatment

Structure (SMILES) | protein expression of c-FLIP (c-FLIP [1]; FL-treated NSCs) | protein level of inactive caspase 3 (pro-form) (c-FLIP [1]; [4]) | protein level of inactive caspase 8 (pro-form) (c-FLIP [1]; [4]) | c-FLIP promoter (−414 to −133 bp) region activity (c-FLIP promoter) | mRNA expression of c-FLIP (c-FLIP [2]) | concentration at 360 min [3] [ng/mL]
CNCCC(Oc1ccc(C(F)(F)F)cc1)c1ccccc1 (stereo not drawn) [FL, fluoxetine] | up-regulated | not decreased | not decreased | Activates | up-regulated | –
CCN1CCN(C(=O)N[C@@H](C(=O)N[C@@H]2C(=O)N3C(C(=O)O)=C(CSc4nnnn4C)CS[C@H]23)c2ccc(O)cc2)C(=O)C1=O [cefoperazone] | – | – | – | – | – | 27800

— patent US20090105562A1, “SYSTEM AND METHODS FOR SCREENING OR ANALYZING TARGETS” (TAIPEI VETERANS GENERAL HOSPITAL, priority 2007, published 2009)
